Source: US12559769B2, “Methods and compositions for the activation of tumor cytotoxicity via human gamma-delta t-cells” (priority 2017, dated 2026)

Tested on: Vγ9Vδ2 T cells
Assay: Activation of Vγ9Vδ2 T cells (TNF-α, flow cytometry) by HepG2 liver carcinoma cells co-cultured with expanded PBMC
Type: cell-based, human
Method: HepG2 cells were transduced with LV-vector, LV-BTN3A3 (R381H), or LV-shFDPS-BTN3A3 (R381H). Three days after transduction, cells were treated with or without 1 μM zoledronic acid. After 24 hours, the transduced HepG2 cells were co-cultured with 5×10^5 PBMC cells and IL-2 in a round bottom 96 well plate for 4 hours. The PBMC cells were pre-stimulated with zoledronic acid and IL-2 for 11 days to expand Vγ9Vδ2 T cells. After staining for Vγ9Vδ2 and TNF-α using fluorophore-conjugated anti TCR-Vδ2 and anti-TNF-α antibody, cells were analyzed via flow cytometry. Live cells were gated, and Vδ2+ and TNF-α+cells were selected on a dot blot. The activated cytotoxic Vγ9Vδ2 T cells appeared in the upper right quadrant of flow cytograms. Without zoledronic acid, the percent of TNF-α expressing Vγ9Vδ2 T cells was 0.6% with LV-vector, 9.5% with BTN3A3 (R381H), and 13.2% with the combination of LV-shFDPS-BTN3A3 (R381H). With zoledronic acid, the percent of TNF-α expressing Vγ9Vδ2 T cells was 7.2% with LV-vector, 17.8% with BTN3A3 (R381H), and 30.1% with the combination of LV-shFDPS-BTN3A3 (R381H).
HepG2 cells were transduced with LV-shFDPS or LV-shFDPS-IL-2. Three days after transduction, cells were treated with or without 1 μM zoledronic acid. After 24 hours, the transduced HepG2 cells were co-cultured with 5×10^5 PBMC cells and with or without IL-2 in a round bottom 96 well plate for 4 hours. The PBMC cells were pre-stimulated with zoledronic acid and IL-2 for 11 days to expand Vγ9Vδ2 T cells. After staining for Vγ9Vδ2 and TNF-α using fluorophore-conjugated anti TCR-Vδ2 and anti-TNF-α antibody, cells were analyzed via flow cytometry. Live cells were gated, and Vδ2+ and TNF-α+ cells were selected on a dot blot. The activated cytotoxic Vγ9Vδ2 T cells appeared in the upper right quadrant of flow cytograms. With only zoledronic acid, the percent of TNF-α expressing Vγ9Vδ2 T cells was 7.5% with LV-shFDPS and 20.1% with LV-shFDPS-IL-2. With zoledronic acid and IL-2, the percent of TNF-α expressing Vγ9Vδ2 T cells was 27.8% with LV-shFDPS and 24.7% with LV-shFDPS-IL-2.
HepG2 liver carcinoma cells were transduced with Lv-shFDPS, Lv-FDPS-IL-15 (expressing both shRNAFDPS and the human cytokine interleukin 15) or Lv-control and cultured for 72 hours. Zoledronic acid (1 μM) was added to (1) cells transduced with Lv-shFDPS, (2) cells transduced with Lv-FDPS-IL-15, and (3) HepG2 cells transduced with Lv-control. Treated cells were cultured for 24 hours. Lv-shFDPS transduced cells, Lv-FDPS-IL-15 transduced cells, and Lv-control transduced cells were co-cultured with PBMC enriched for Vγ9Vδ2 cells plus a protein transport inhibitor (BD GolgiStop) for 4 hours. After 4 hours of stimulation, cells were collected and labeled with Vδ2 phycoerythrin (PE) and TNFαallophycocyanin (APC), and the labeled cells were analyzed by flow cytometry.
HepG2 cells were transduced with LV-control or LV-FDPS shRNA #4 (SEQ ID NO: 4) or LV-GGPS1 shRNA #1 (SEQ ID NO: 70) for 3 days. Two days after transduction, cells were treated with or without 1 μM zoledronic acid. After 24 hours, the transduced HepG2 cells were co-cultured for 4 hours with 5×10^5 PBMC cells in a round bottom 96 well plate. The PBMC cells had been pre-stimulated with zoledronic acid plus IL-2 for at least 11 days to expand Vγ9Vδ2 T cells. After staining for Vγ9Vδ2 and TNF-α using fluorophore-conjugated anti TCR-Vδ2 and anti-TNF-α antibody, cells were analyzed via flow cytometry. Live cells were gated; Vδ2+ and TNF-α+ cells were identified on a dot blot. The activated cytotoxic Vγ9Vδ2 T cells appeared in the upper right quadrant of the flow cytograms. Without zoledronic acid, LV-control stimulated 0.36% of TNF-α expressing Vγ9Vδ2 T cells whereas LV-FDPS shRNA #4 (SEQ ID NO: 4) stimulated 0.9% and LV-GGPS1 #1 (SEQ ID NO: 70) shRNA stimulated 0.58%. […]

[1] = Example 26, FIG. 30, LV-FDPS shRNA #4 transduced HepG2 cells, drug 1 μM, 24 hours
[2] = Example 26, FIG. 30, LV-control transduced HepG2 cells, 1 μM, 24 hours, untreated 1.82%

Row | Compound | percent of TNF-α expressing Vγ9Vδ2 T cells (Example 4, LV-vector (control) transduced HepG2 cells, 1 μM zoledronic acid) [%] | percent of TNF-α expressing Vγ9Vδ2 T cells (Example 20, LV-control transduced HepG2 cells, 1 μM zoledronic acid) [%] | percent of TNF-α expressing Vγ9Vδ2 T cells [1] [%] | percent of TNF-α expressing Vγ9Vδ2 T cells [2] [%] | percent of TNF-α expressing Vγ9Vδ2 T cells (Example 26, FIG. 30, LV-FDPS shRNA #4 transduced HepG2 cells, drug 5 μM, 24 hours) [%] | percent of TNF-α expressing Vγ9Vδ2 T cells (Example 26, FIG. 30, LV-control transduced HepG2 cells, 5 μM, 24 hours, untreated 1.82%) [%]
1 | O=P(O)(O)C(O)(Cn1ccnc1)P(=O)(O)O [zoledronic acid] | 7.2 | 6.88 | 50.8 | 3.02 | – | –
2 | C=C(CC[C@]12O[C@H](C(=O)O)[C@@](O)(C(=O)O)[C@](C(=O)O)(O1)[C@H](OC(=O)/C=C/[C@@H](C)C[C@@H](C)CC)[C@H]2O)[C@@H](OC(C)=O)[C@H](C)Cc1ccccc1 [zaragozic acid] | – | – | – | – | 2.82 | 1.63
3 | COC(=O)[C@H](CCSC)NC(=O)c1ccc(NC[C@@H](N)CS)cc1-c1ccccc1 [FT1277] | – | – | 2.69 | 1.72 | – | –
